Results taken from ChEMBL document CHEMBL4270535, “Facile synthesis of vanillin-based novel bischalcones identifies one that induces apoptosis and displays synergy with Artemisinin in killing chloroquine resistant Plasmodium falciparum” (Eur J Med Chem, 2018).

Key:
[1] = tested on: Plasmodium falciparum; assay: Antiplasmodial activity against synchronized ring stage of chloroquine-resistant Plasmodium falciparum INDO infected in human erythrocytes after 48 hrs by SYBR Green 1 dye based fluorescence assay; format: functional, organism-based
[2] = tested on: Plasmodium falciparum; assay: Antiplasmodial activity against synchronized ring stage of chloroquine-resistant Plasmodium falciparum Dd2 infected in human erythrocytes after 48 hrs by SYBR Green 1 dye based fluorescence assay; format: functional, organism-based; settings: Dd2, 48 h
[3] = Resistance index, ratio of IC50 for synchronized ring stage of chloroquine-resistant Plasmodium falciparum INDO infected in human erythrocytes to IC50 for synchronized ring stage of chloroquine-sensitive Plasmodium falciparum 3D7 infected in human erythrocytes; format: functional
[4] = Resistance index, ratio of IC50 for synchronized ring stage of chloroquine-resistant Plasmodium falciparum Dd2 infected in human erythrocytes to IC50 for synchronized ring stage of chloroquine-sensitive Plasmodium falciparum 3D7 infected in human erythrocytes; format: functional
[5] = Selectivity index, ratio of IC50 for human HeLa cells to IC50 for synchronized ring stage of chloroquine-sensitive Plasmodium falciparum 3D7 infected in human erythrocytes; format: toxicity, cell-based; settings: read-out: Ratio IC50
[6] = Selectivity index, ratio of IC50 for mouse L929 cells to IC50 for synchronized ring stage of chloroquine-sensitive Plasmodium falciparum 3D7 infected in human erythrocytes; format: toxicity, cell-based; settings: read-out: Ratio IC50
[7] = tested on: Plasmodium falciparum; assay: Potentiation of artemisinin-induced antiplasmodial activity against synchronized ring stage of chloroquine-sensitive Plasmodium falciparum 3D7 infected in human erythrocytes assessed as fold reduction in artemisinin IC50 relative to artemisinin alone; format: functional

## C[C@@H]1CC[C@H]2[C@@H](C)C(=O)O[C@@H]3O[C@@]4(C)CC[C@@H]1[C@]32OO4 [ARTEMISININ]
[1]
  IC50: 0.015 µM
[2]
  IC50: 0.013 µM
[3]
  Ratio IC50: 1
[4]
  Ratio IC50: 0.87
[5]
  selectivity ratio: > 200
[6]
  selectivity ratio: > 200
[7]
  Ratio IC50: 1.7 - 3.7
